One test concerns the target T1, MAGI1_C526 (Homo sapiens, UniProt Q96QZ7).
T1 construct: endogenous in cells; host or cells: 22Rv1
The test is described as follows: IA-DTB cysteine engagement. It counts as binding. Conditions: 22Rv1 cells, 20 μM probe, 1 h, relative to DMSO. As for the experimental part:
(§1) Sample preparation: Cells (adherent: 15 cm dishes, suspension: 2 million cells/mL) were treated with electrophilic probes in situ for indicated times and concentrations, washed with ice-cold PBS, and flash frozen in liquid nitrogen. Cell pellets were lysed by sonication (8 pulses, 40% power) in 500 μL ice-cold PBS supplemented with cOmplete protease inhibitors (1 tablet/10 mL of PBS). Whole cell lysates protein content was measured using a standard DC protein assay (Bio-Rad) and 500 μL (2 mg/mL protein content) were treated with 5 μL of 10 mM 1A-DTB (in DMSO) for 1 h at ambient temperature with occasional vortexing. Samples were methanol-chloroform precipitated with the addition of 500 μL ice-cold MeOH and 200 μL CHCl3, vortexed, and centrifuged (10 min, 10,000 g). Without disrupting the protein disk, both top and bottom layers were aspirated and the protein disk was washed with 1 mL ice-cold MeOH and centrifuged (10 min, 10,000 g). The pellets were allowed to air dry, and then re-suspended in 90 μL buffer (9 M urea, 10 mM DTT, 50 mM TEAB pH 8.5). Samples were reduced by heating at 65 C for 20 minutes and water bath sonicated as needed to resuspend the protein pellets, followed by alkylation via addition of 10 μL (500 mM) iodoacetamide and incubated at 37 C for 30 min with shaking. Samples were briefly centrifuged, and probe sonicated once more to ensure complete resuspension, and then diluted with 300 μL buffer (50 mM TEAB pH 8.5) to reach final concentration of 2 M urea. Trypsin (4 μL of 0.25 μg/μL in trypsin resuspension buffer with 25 mM CaCl2)) was added to each sample and digested at 37 C for 2 h to overnight. Digested samples were then diluted with 300 μL wash buffer (50 mM TEAB pH 8.5, 150 mM NaCl, 0.2% NP-40) containing streptavidin-agarose beads (50 μL of 50% slurry in wash buffer) and were rotated at room temperature for 2 hours. Enriched samples were pelleted by centrifugation (2000 g, 2 min) and transferred to BioSpin columns and washed (3×1 mL wash buffer, 3×1 mL PBS, 3×1 mL water). Enriched peptides were eluted by 300 μL 50% acetonitrile with 0.1% formic acid and eluate was evaporated to dryness via speedvac. IA-DTB labeled and enriched peptides were resuspended in 100 μL EPPS buffer (200 mM, pH 8.0) with 30% acetonitrile, vortexed, and water bath sonicated. Samples were TMT labeled with 3 μL of corresponding TMT tag (5 mg tag resuspended in 256 μL acetonitrile), vortexed, and incubated at room temperature for 1 hour. TMT labeling was quenched with the addition of hydroxylamine (5 μL 5% solution in H2O) and incubated for 15 minutes at room temperature. Samples were then acidified with 5 μL formic acid, combined and dried using a SpeedVac. Samples were desalted via Sep-Pak and then high pH fractionated.
(§2) Data processing: Cysteine engagement ratios (probe vs DMSO) were calculated for each peptide-spectra match by dividing each TMT reporter ion intensity by the average intensity for the channels corresponding to DMSO treatment. Peptide-spectra matches were then grouped based on protein ID and residue number (e.g., PSME1 C22), excluding peptides with summed reporter ion intensities for the DMSO channels <10,000, coefficient of variation for DMSO channels >0.5, and non-tryptic peptide sequences. TMT reporter ion intensities were normalized to the median summed signal intensity across channels.
(§3) Filtering of cysteine data: Replicates were combined based on cell line and treatment condition (probe, concentration, duration) by averaging cysteine engagement ratios across all experiments.

The target in a further test is T2, RTN4_C1101 (Homo sapiens, UniProt Q9NQC3).
T2 construct: endogenous in cells; host or cells: 22Rv1
T2 sequence (Q9NQC3 1-1192): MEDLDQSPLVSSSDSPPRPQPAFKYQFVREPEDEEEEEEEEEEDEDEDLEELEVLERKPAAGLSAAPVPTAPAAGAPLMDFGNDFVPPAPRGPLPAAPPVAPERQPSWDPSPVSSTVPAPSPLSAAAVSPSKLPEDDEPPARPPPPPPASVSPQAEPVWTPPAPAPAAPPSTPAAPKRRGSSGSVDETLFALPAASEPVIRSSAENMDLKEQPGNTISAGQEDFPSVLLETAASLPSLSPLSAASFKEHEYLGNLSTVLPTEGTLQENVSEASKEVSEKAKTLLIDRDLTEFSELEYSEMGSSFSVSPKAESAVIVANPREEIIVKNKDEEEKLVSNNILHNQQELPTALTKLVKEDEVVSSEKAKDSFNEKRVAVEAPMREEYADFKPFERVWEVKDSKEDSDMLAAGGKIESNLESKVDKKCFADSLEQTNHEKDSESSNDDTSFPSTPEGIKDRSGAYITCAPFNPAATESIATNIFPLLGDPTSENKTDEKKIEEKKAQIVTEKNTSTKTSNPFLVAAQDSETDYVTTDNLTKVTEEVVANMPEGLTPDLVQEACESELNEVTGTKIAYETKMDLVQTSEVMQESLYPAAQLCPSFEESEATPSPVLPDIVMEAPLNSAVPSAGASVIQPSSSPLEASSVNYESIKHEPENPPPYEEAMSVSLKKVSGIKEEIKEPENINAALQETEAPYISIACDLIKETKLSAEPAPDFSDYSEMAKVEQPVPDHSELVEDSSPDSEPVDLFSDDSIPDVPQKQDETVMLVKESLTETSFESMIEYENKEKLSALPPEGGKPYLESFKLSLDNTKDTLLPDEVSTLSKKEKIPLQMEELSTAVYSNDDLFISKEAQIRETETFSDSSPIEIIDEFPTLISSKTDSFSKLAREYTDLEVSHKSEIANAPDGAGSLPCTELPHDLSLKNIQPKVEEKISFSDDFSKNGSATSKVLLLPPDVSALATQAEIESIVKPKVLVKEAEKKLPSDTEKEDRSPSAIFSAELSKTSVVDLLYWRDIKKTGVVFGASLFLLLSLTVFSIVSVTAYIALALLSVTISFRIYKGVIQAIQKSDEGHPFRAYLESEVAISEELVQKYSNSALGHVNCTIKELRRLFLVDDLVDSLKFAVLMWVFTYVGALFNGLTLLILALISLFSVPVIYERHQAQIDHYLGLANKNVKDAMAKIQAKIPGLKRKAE
The test is described as follows: IA-DTB cysteine engagement. It counts as binding. As to conditions: 22Rv1 cells, 20 μM probe, 1 h, relative to DMSO. Here is the method: as §1, §2, §3

T1 sequence (Q96QZ7 whole entry): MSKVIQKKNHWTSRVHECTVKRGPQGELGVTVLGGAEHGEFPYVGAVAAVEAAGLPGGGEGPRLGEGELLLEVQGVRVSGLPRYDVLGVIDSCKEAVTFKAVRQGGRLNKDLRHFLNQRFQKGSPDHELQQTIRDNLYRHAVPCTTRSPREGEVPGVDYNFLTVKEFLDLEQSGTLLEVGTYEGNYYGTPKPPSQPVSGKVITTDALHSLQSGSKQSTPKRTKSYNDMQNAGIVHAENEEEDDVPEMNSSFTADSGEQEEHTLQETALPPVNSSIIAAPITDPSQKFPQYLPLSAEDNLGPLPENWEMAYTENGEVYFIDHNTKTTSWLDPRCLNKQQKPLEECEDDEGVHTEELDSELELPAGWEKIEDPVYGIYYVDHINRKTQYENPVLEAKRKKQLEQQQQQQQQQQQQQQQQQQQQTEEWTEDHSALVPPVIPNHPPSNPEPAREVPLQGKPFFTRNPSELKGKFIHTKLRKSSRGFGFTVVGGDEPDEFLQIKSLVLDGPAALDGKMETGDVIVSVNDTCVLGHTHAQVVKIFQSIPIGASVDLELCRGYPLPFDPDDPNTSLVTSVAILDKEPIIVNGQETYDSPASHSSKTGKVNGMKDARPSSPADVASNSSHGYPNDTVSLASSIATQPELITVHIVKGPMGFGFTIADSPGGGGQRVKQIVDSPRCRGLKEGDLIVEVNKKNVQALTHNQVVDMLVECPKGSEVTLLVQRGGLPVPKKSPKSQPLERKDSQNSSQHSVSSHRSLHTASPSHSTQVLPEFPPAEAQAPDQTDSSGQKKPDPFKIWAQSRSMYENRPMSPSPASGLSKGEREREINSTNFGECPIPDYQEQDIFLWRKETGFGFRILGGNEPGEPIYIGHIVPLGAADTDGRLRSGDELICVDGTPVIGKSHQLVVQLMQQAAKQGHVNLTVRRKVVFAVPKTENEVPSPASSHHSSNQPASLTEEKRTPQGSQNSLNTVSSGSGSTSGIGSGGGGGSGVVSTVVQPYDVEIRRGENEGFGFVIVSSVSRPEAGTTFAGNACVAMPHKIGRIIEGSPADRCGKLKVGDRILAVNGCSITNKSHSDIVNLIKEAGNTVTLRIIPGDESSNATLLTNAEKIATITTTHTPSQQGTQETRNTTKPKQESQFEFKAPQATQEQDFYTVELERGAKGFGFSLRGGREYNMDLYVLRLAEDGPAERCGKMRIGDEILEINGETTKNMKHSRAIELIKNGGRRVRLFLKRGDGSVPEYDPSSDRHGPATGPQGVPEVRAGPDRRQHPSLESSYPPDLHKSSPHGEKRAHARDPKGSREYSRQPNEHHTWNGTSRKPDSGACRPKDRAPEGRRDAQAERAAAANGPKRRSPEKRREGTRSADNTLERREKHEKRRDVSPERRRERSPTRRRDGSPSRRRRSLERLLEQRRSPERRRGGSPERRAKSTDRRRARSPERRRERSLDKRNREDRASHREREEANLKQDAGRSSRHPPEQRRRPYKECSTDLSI

For `C=CC(=O)N1C[C@@H](c2ccc(Br)cc2)[C@H]1C(=O)Nc1cccc2cccnc12` [MY-1A, (2S,3R)-1-acryloyl-3-(4-bromophenyl)-N-(quinolin-8-yl)azetidine-2-carboxamide], the “% engagement MAGI1_C526” value on MAGI1_C526 came to 65%. For the same compound, the “% engagement RTN4_C1101” value at RTN4_C1101 is reported as 85%.
With `C=CC(=O)N1C[C@H](c2ccc(Br)cc2)[C@@H]1C(=O)Nc1cccc2cccnc12` [MY-1B, (2R,3S)-1-acryloyl-3-(4-bromophenyl)-N-(quinolin-8-yl)azetidine-2-carboxamide], on MAGI1_C526, the “% engagement MAGI1_C526” value was 32%. For the same compound, the “% engagement RTN4_C1101” value at RTN4_C1101 is given as 87.5%.
With `C=CC(=O)N1C[C@H](c2ccc(Br)cc2)[C@H]1C(=O)Nc1cccc2cccnc12` [MY-3A, (2S,3S)-1-acryloyl-3-(4-bromophenyl)-N-(quinolin-8-yl)azetidine-2-carboxamide], the “% engagement MAGI1_C526” value at MAGI1_C526 was 2.5%. In addition, on RTN4_C1101, the “% engagement RTN4_C1101” value came out at 91.5%.
`C=CC(=O)N1C[C@H](c2ccc(Br)cc2)[C@H]1C(=O)Nc1cccc2cccnc12` [MY-3B, (2S,3S)-1-acryloyl-3-(4-bromophenyl)-N-(quinolin-8-yl)azetidine-2-carboxamide]: at MAGI1_C526, the “% engagement MAGI1_C526” value is on record as 100%. The “% engagement RTN4_C1101” value at RTN4_C1101 worked out at 85%.

Values taken from patent US20250034216A1, “STEREOSELECTIVE COVALENT LIGANDS FOR ONCOGENIC AND IMMUNOLOGICAL PROTEINS” (The Scripps Research Institute, priority 2021, published 2025).
